≈ marks a conversion by molar mass, not a printed value. Read-outs that look alike come from different tables or passages of the source.
What was measured:
resistant strain of MTB = format: in vivo, Mycobacterium tuberculosis; settings: for dose giving 2 log reduction in the organs: animals infected with resistant strains
M. tuberculosis isolates = experiment: microbe, parasite or virus in culture; format: cell-based, Mycobacterium tuberculosis; settings: for MIC50 / MIC90: Mycobacterium tuberculosis; for MIC50: read-out: MIC against M. tuberculosis isolates, MIC50; for MIC90: read-out: MIC against M. tuberculosis isolates, MIC90
[1] = test system: sensitive/resistant strains of M. tuberculosis; experiment: Murine model of pulmonary tuberculosis, text statements not split by strain; format: in vivo, Mycobacterium tuberculosis; settings: monotherapy
[2] = combination study, one month, doses mg/kg: (I) 25.0 where present, INH 25.0, RIF 20.0, PYR 150.0, ETH 100.0
[3] = combination study, three months, doses mg/kg: (I) 25.0 where present, INH 25.0, RIF 20.0, PYR 150.0, ETH 100.0
[4] = combination study, two months, doses mg/kg: (I) 25.0 where present, INH 25.0, RIF 20.0, PYR 150.0, ETH 100.0
[5] = monotherapy 12.5 mg/kg, 8 Weeks Treatment (two months)
[6] = monotherapy 12.5 mg/kg, 12 Weeks Treatment (three months)
[7] = monotherapy 12.5 mg/kg, one month of treatment
[8] = monotherapy 25 mg/kg, 8 Weeks Treatment (two months)
[9] = monotherapy 25 mg/kg, 12 Weeks Treatment (three months)
[10] = monotherapy 25 mg/kg, one month of treatment
[11] = monotherapy 50 mg/kg, 8 Weeks Treatment (two months)
[12] = monotherapy 50 mg/kg, 12 Weeks Treatment (three months)
[13] = monotherapy 50 mg/kg, one month of treatment

Compound | dose giving 2 log reduction in the organs (resistant strain of MTB) [mg/kg] | Mean Log10CFU in organs of mice infected with resistant strain of MTB, Lung (resistant strain of MTB; [2]) [Log10CFU] | Mean Log10CFU in organs of mice infected with resistant strain of MTB, Spleen (resistant strain of MTB; [2]) [Log10CFU] | Mean Log10CFU in organs of mice infected with resistant strain of MTB, Lung (resistant strain of MTB; [3]) [Log10CFU] | Mean Log10CFU in organs of mice infected with resistant strain of MTB, Spleen (resistant strain of MTB; [3]) [Log10CFU] | Mean Log10CFU in organs of mice infected with resistant strain of MTB, Lung (resistant strain of MTB; [4]) [Log10CFU] | Mean Log10CFU in organs of mice infected with resistant strain of MTB, Spleen (resistant strain of MTB; [4]) [Log10CFU] | Mean Log10CFU in organs of mice infected with resistant strain of MTB, Lung (resistant strain of MTB; [5]) [Log10CFU] | Mean Log10CFU in organs of mice infected with resistant strain of MTB, Spleen (resistant strain of MTB; [5]) [Log10CFU] | Mean Log10CFU in organs of mice infected with resistant strain of MTB, Lung (resistant strain of MTB; [6]) [Log10CFU] | Mean Log10CFU in organs of mice infected with resistant strain of MTB, Spleen (resistant strain of MTB; [6]) [Log10CFU] | Mean Log10CFU in organs of mice infected with resistant strain of MTB, Lung (resistant strain of MTB; [7]) [Log10CFU] | Mean Log10CFU in organs of mice infected with resistant strain of MTB, Spleen (resistant strain of MTB; [7]) [Log10CFU] | Mean Log10CFU in organs of mice infected with resistant strain of MTB, Lung (resistant strain of MTB; [8]) [Log10CFU] | Mean Log10CFU in organs of mice infected with resistant strain of MTB, Spleen (resistant strain of MTB; [8]) [Log10CFU] | Mean Log10CFU in organs of mice infected with resistant strain of MTB, Lung (resistant strain of MTB; [9]) [Log10CFU] | Mean Log10CFU in organs of mice infected with resistant strain of MTB, Spleen (resistant strain of MTB; [9]) [Log10CFU] | Mean Log10CFU in organs of mice infected with resistant strain of MTB, Lung (resistant strain of MTB; [10]) [Log10CFU] | MIC50 (M. tuberculosis isolates) [µg/mL] | MIC90 (M. tuberculosis isolates) [µg/mL] | other results
Cc1c(CN2CCN(c3cccc(C(F)(F)F)c3)CC2)cc(-c2ccccc2)n1NC(=O)c1ccncc1 [Compound of formula (I)] | 12.5 | 2.86 ± 0.37 | 2.25 ± 0.18 | 1.30 ± 1.02 | 1.64 ± 1.12 | 2.37 ± 0.81 | 2.52 ± 0.48 | 3.32 ± 0.6 | 3.1 ± 1.13 | 2.51 ± 0.18 | 2.6 ± 0.34 | 2.97 ± 0.53 | 3.02 ± 0.22 | 2.83 ± 0.66 | 2.61 ± 0.56 | 1.86 ± 0.97 | 1.79 ± 0.92 | 2.70 ± 0.36 | 0.12 | 0.25 | Mean Log10CFU in organs of mice infected with resistant strain of MTB, Spleen (resistant strain of MTB; [10]): 2.54 ± 0.20 Log10CFU; Mean Log10CFU in organs of mice infected with resistant strain of MTB, Lung (resistant strain of MTB; [11]): 2.51 ± 0.72 Log10CFU; Mean Log10CFU in organs of mice infected with resistant strain of MTB, Spleen (resistant strain of MTB; [11]): 2.37 ± 0.61 Log10CFU; Mean Log10CFU in organs of mice infected with resistant strain of MTB, Lung (resistant strain of MTB; [12]): 1.79 ± 0.92 Log10CFU; Mean Log10CFU in organs of mice infected with resistant strain of MTB, Spleen (resistant strain of MTB; [12]): 1.69 ± 0.88 Log10CFU; Mean Log10CFU in organs of mice infected with resistant strain of MTB, Lung (resistant strain of MTB; [13]): 2.59 ± 0.22 Log10CFU; Mean Log10CFU in organs of mice infected with resistant strain of MTB, Spleen (resistant strain of MTB; [13]): 2.32 ± 0.39 Log10CFU; MIC against M. tuberculosis isolates, Range (M. tuberculosis isolates; approximately 200 sensitive and resistant clinical isolates): 0.12 to 0.5 µg/mL; reduction in viable bacilli in the target organs as compared to control animals ([1]; one month (Table III)): > 2 log; animals with complete absence of mycobacterium ([1]; treated for three months): 33%
NNC(=O)c1ccncc1 [Isoniazid] | > 50 | 5.23 ± 0.27 | 4.61 ± 0.43 | 5.37 ± 0.35 | 5.19 ± 0.65 | 5.15 ± 0.42 | 5.36 ± 0.84 | 6.01 ± 0.9 | 5.88 ± 0.41 | 5.1 ± 0.7 | 5.72 ± 0.17 | 5.47 ± 0.54 | 5.01 ± 0.45 | 5.91 ± 0.35 | 5.7 ± 0.34 | 4.79 ± 0.55 | 5.62 ± 0.63 | 5.34 ± 0.34 | 4 (≈ 29.2 µM) | > 16 | Mean Log10CFU in organs of mice infected with resistant strain of MTB, Spleen (resistant strain of MTB; [10]): 4.97 ± 0.52 Log10CFU; Mean Log10CFU in organs of mice infected with resistant strain of MTB, Lung (resistant strain of MTB; [11]): 5.42 ± 0.74 Log10CFU; Mean Log10CFU in organs of mice infected with resistant strain of MTB, Spleen (resistant strain of MTB; [11]): 5.1 ± 0.61 Log10CFU; Mean Log10CFU in organs of mice infected with resistant strain of MTB, Lung (resistant strain of MTB; [12]): 4.76 ± 0.20 Log10CFU; Mean Log10CFU in organs of mice infected with resistant strain of MTB, Spleen (resistant strain of MTB; [12]): 5.64 ± 066 Log10CFU; Mean Log10CFU in organs of mice infected with resistant strain of MTB, Lung (resistant strain of MTB; [13]): 4.77 ± 0.61 Log10CFU; Mean Log10CFU in organs of mice infected with resistant strain of MTB, Spleen (resistant strain of MTB; [13]): 4.83 ± 0.68 Log10CFU
CO[C@H]1/C=C/O[C@@]2(C)Oc3c(C)c(O)c4c(O)c(c(/C=N/N5CCN(C)CC5)c(O)c4c3C2=O)NC(=O)/C(C)=C\C=C\[C@H](C)[C@H](O)[C@@H](C)[C@@H](O)[C@@H](C)[C@H](OC(C)=O)[C@@H]1C [Rifampicin] | – | 3.05 ± 0.43 | 2.44 ± 0.32 | 0.94 ± 1.04 | 1.78 ± 1.38 | 2.45 ± 1.15 | 2.60 ± 0.59 | – | – | – | – | – | – | – | – | – | – | – | 4 (≈ 4.86 µM) | > 16 | –

Reference: patent US7491721B2, “Antimycobacterial pharmaceutical composition” (priority 2004, dated 2009)
